Test results published in patent US8137946B2, “Recombinant GRAS strains expressing thermophilic arabinose isomerase as an active form and method of preparing food grade tagatose by using the same” (CJ Cheiljedang Corporation, priority 2006, dated 2012).
Where “and” joins values, the source holds several entries; their conditions need not be identical. Identical values can stand only once.

T1: Geobacillus thermodenitrificans arabinose isomerase (mGTAI), recombinant, expressed in and purified from Corynebacterium glutamicum mGTAIC001 (Geobacillus thermodenitrificans, UniProt A4IPA1, C449S/N474K)
T1 sequence (A4IPA1 with tags, fused parts or gaps C449S/N474K): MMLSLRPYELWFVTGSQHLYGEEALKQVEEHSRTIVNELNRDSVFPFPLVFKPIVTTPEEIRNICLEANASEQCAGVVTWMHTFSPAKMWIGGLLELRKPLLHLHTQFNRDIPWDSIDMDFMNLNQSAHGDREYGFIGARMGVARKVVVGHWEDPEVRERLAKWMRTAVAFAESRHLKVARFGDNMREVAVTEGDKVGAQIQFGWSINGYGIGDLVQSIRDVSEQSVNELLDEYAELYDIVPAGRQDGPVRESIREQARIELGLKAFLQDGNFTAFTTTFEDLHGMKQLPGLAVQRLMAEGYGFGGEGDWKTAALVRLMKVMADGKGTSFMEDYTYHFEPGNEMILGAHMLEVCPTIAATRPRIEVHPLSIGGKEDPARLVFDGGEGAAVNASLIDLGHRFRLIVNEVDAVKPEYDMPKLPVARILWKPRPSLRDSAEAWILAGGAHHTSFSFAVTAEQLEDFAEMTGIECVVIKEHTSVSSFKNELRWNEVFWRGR

B1: Geobacillus thermodenitrificans arabinose isomerase (mGTAI), recombinant, expressed in and purified from Corynebacterium glutamicum mGTAIC001 (Geobacillus … (protein)
chain: T1 sequence (A4IPA1 with tags, fused parts or gaps C449S/N474K)

Key:
[1] = target: T1, Geobacillus thermodenitrificans arabinose isomerase (mGTAI), recombinant, expressed in and purified from Corynebacterium glutamicum mGTAIC001; test: Enzyme kinetics of purified recombinant arabinose isomerase (isomerization of galactose into tagatose)
Procedure: The culture solution was centrifuged at 8000×g for 10 minutes and cells were recovered. The cells were resuspended in 50 mM Tris-HCl (pH 7.0) buffer, and used for the protein purification. The cell suspension progressed to cell lysis using a high pressure cell homogenizer T-series (4.0 kW; Constant systems, UK), followed by heat-treatment at […] for 20 minutes. Centrifugation was performed at 10,000×g for 10 minutes to separate the expressed recombinant thermophilic arabinose isomerase.
The separated recombinant enzyme solution was filtered by ultrafiltration (MW: 10,000; Sartorius, U.S.A.) and was purified by Q Sepharose Fast Flow (anion exchange column) (staring buffer: 20 mM Tris-HCl, pH 7.5, elution buffer: 20 mM Tris-HCl (pH 7.5)+500 mM NaCl). The protein was purified by FPLC system and it was analyzed by SDS-PAGE.
The activity of the enzyme was measured by the cystein-carbazol-sulfuric acid method (Dische, Z., and E. Borenfreund., A New Spectrophotometric Method for the Detection and Determination of Keto Sugars and Trioses, J. Biol. Chem., 192:583-587, 1951). The fraction contained in the enzyme solution was analysed by SDS-PAGE.
The activity of the enzyme was measured in the reaction buffer (50 mM Tris-HCl, pH 7.0, 1 mM MnCl2 was added) at 55° C. to 85° C. (at intervals of 5° C.). The activity of the enzyme was measured by the cystein-carbazol-sulfuric acid method (Dische, Z., and E. Borenfreund., A New Spectrophotometric Method for the Detection and Determination of Keto Sugars and Trioses, J. Biol. Chem., 192:583-587, 1951).
To measure the enzyme kinetics of purified arabinose isomerase of the present invention, kinetic parameters were determined at 60° C., 65° C. and 70° C. (table 5).

[2] = substrate: OC[C@H]1OC(O)[C@H](O)[C@@H](O)[C@H]1O; test: purified protein, by the assay type

Molecule	kcat/Km ([1]; 60° C.)	νmax ([1]; 60° C.)	kcat/Km ([1]; 65° C.) [M⁻¹ s⁻¹]	νmax ([1]; 65° C.)	Km increase (times) relative to 60° C. ([1]; 65° C. and 70° C. vs 60° C.) [times]	kcat/Km ([1]; 70° C.)	νmax ([1]; 70° C.)	Km ([2]; other: 60° C.) [mM]	kcat/Km ([2]; other: 65° C.) [M⁻¹ s⁻¹]
OC[C@H]1OC(O)[C@H](O)[C@@H](O)[C@H]1O (stereo partly drawn) [galactose]	35 M⁻¹ s⁻¹ and 35 ± 0.67 M⁻¹ s⁻¹	2.5 U/mg and 2.5 ± 0.07 U/mg	38.3 ± 0.5	6.5 U/mg and 6.5 ± 0.57 U/mg	2.4	53.3 M⁻¹ s⁻¹ and 53.3 ± 0.67 M⁻¹ s⁻¹	9.1 U/mg and 9.1 ± 1.42 U/mg		
B1								67.0 ± 2.98	38.3
